Measured values published in patent US20030229025A1, “Intranasal administration of MC4-R agonists” (Chiron Corporation, priority 2002, published 2003).
Ends that are not written are not given here.

Experiments:
ob/ob mice [1] = assay: Intranasal (IN) efficacy: food intake in fasted ob/ob mice; assay type: in vivo; settings: Mus musculus, inhaled or nasal, 4 hour, read-out: % Food Intake Reduction at 4 hour
Protocol: Subjects: ob/ob mice; approximately 10 weeks old males; body weight 50-60 grams.
The mice were divided into the following groups:
1) Mice received only vehicle. The vehicle was one of the following: water, 10 mM phosphate buffer, 5% captisol in 10 mM phosphate buffer (see Table 1 for details).
2) Mice received a compound of an embodiment of the present invention at a dosage of 1 mg/kg.
3) Mice received a compound of an embodiment of the present invention at a dosage of 3 mg/kg.
4) Mice received a compound of an embodiment of the present invention at a dosage of 6 mg/kg. n=6-8 animals per group
Note: For compound 1 and compound 2, the 1 mg/kg group was not included.
Animals were fasted overnight (˜16 hours), and an MC4-R agonist compound as described in Tables 1-3 was administered at 8:30 am next day. The administration volume was […]/50 grams of body weight. The animal was gently held by one hand, and the compound solution was delivered by the other hand using a pipette with fine tips. The rate of delivery was such that the full amount was given in not less than 60 seconds to ensure maximal absorption. Pre-weighed food was given to the animals immediately after dosing, and animals had free access to water throughout the study. Food weighing was performed at 1, 2, 3, 4, and 6 hours after dosing. On occasion, food weighing was also taken at the 8 hour or 24 hour time point. Animals were euthanized using carbon dioxide followed by cervical dislocation at the end of the experiment.
Mice were fasted overnight. At 8:30 am the next morning, they were dosed with 25 μl of vehicle or compound solution by intranasal delivery. The solution was delivered using a pipette with protein loading tips. The rate of delivery was such that the full amount was given in not less than 60 seconds. Mice were fed with pre-weighed food immediately after dosing, and had access to water the entire time. Food weight was measured at 1, 2, 3, 4, 6, and 8 hours following the dosing. Mice were euthanized at the end of the study using CO2 followed by cervical dislocation.

ob/ob mice [2] = assay: as above; assay type: in vivo; settings: Mus musculus, inhaled or nasal, 4 hour, read-out: % Food Intake Reduction at 4 hour; remark: listed apart in the source
[3] = acute intranasal administration; ACTH4-10 1 mg, desacetyl-αMSH 1.68 mg (equimolar); cited from earlier work
[4] = human subjects, cited from earlier work; for body fat: intranasal administration

Row | Molecule | inhibition in vivo at 3 mg/kg (ob/ob mice [1]) | inhibition in vivo at 6 mg/kg (ob/ob mice [1]) | inhibition in vivo at 1 mg/kg (ob/ob mice [1]) | inhibition in vivo at 0.5 mg/kg (ob/ob mice [2]) | processing negativity (PN) of the ERP over frontal and central cortical areas [3] | plasma leptin levels and insulin levels ([4]; after intranasal administration) | body fat [4]
1 | COc1ccc(CCNC(=O)c2ccc(N/C(=N/[C@H]3C[C@H]4C[C@@H]([C@@H]3C)C4(C)C)N3CCN[C@@H](C)C3)cc2)c(F)c1 [Compound 1] | 59% | 91.5% |  |  |  |  | 
2 | C[C@@H]1[C@@H](/N=C(/Nc2ccc(C(=O)OCCc3ccc(Cl)cc3Cl)cc2)N2C[C@@H](C)N[C@@H](C)C2)C[C@H]2C[C@@H]1C2(C)C [Compound 7] | 42.7% | 85.5% | 23.5% |  |  |  | 
3 | COc1ccc(CCn2cnc3cc(N/C(=N/[C@H]4C[C@H]5C[C@@H]([C@@H]4C)C5(C)C)N4CCN[C@@H](C)C4)ccc3c2=O)c(F)c1 [Compound 12] | 47.2% |  | 22.6% | 6% |  |  | 
4 | C[C@@H]1[C@@H](/N=C(/Nc2ccc(C(=O)N[C@H](CO)Cc3ccc(Cl)cc3Cl)cn2)N2C[C@@H](C)N[C@@H](C)C2)C[C@H]2C[C@@H]1C2(C)C [Compound 11] | 82% |  | 27.7% | -3.8% |  |  | 
5 | C[C@@H]1[C@@H](/N=C(\Nc2ccc3[nH]c(CCc4ccc(Cl)cc4Cl)nc3c2)N2CCN[C@@H](C)C2)C[C@H]2C[C@@H]1C2(C)C [Compound 5] | 53.1% | 67.3% | 10.4% |  |  |  | 
6 | COc1ccc(CCNC(=O)c2ccc(N/C(=N/[C@H]3C[C@H]4C[C@@H]([C@@H]3C)C4(C)C)N3C[C@@H](C)N[C@@H](C)C3)cc2)c(F)c1 [Compound 3] | 63.8% | 70.3% | -3% |  |  |  | 
7 | Cc1ccc(CCc2nc3ccc(N/C(=N\[C@H]4C[C@H]5C[C@@H]([C@@H]4C)C5(C)C)N4CCN[C@@H](C)C4)cc3[nH]2)c(C)c1 [Compound 2] | 23.7% | 1.7% |  |  |  |  | 
8 | MSH/ACTH4-10: melanocyte stimulating hormone/adrenocorticotropin4-10; behaviorally active fragment of ACTH (MEHFRWG; Corticotropin; UniProt P01189 141-147, looked up, fragment) |  |  |  |  | reduced the processing negativity | decreased | reduced body fat
9 | C[C@@H]1[C@@H](/N=C(\Nc2ccc(NC(=O)CCc3ccc(Cl)cc3Cl)cc2)N2CCN[C@@H](C)C2)C[C@H]2C[C@@H]1C2(C)C [Compound 6] | 21.3% | 57.4% | -11.9% |  |  |  | 
10 | COc1ccc(CCN2CCc3cc(N/C(=N/[C@H]4C[C@H]5C[C@@H]([C@@H]4C)C5(C)C)N4CCN[C@@H](C)C4)ccc3C2=O)c(F)c1 [Compound 10] | 39.7% |  | 14.2% |  |  |  | 
11 | CCOC(=O)c1ccc(N/C(=N/[C@H]2C[C@H]3C[C@@H]([C@@H]2C)C3(C)C)N2C[C@@H](C)N[C@@H](C)C2)cc1 [Compound 8] | 60% | 84.1% | 37.8% |  |  |  | 
12 | desacetyl-αMSH: melanocortin peptide intranasally administered in the cited studies of Fehm et al. and Smolnik et al. (SYSMEHFRWGKPV; ends and bridges not checked; UniProt P01189 138-150, looked up) |  |  |  |  | ineffective |  | nonsignificant
13 | COc1ccc(CCNC(=O)c2ccc(N/C(=N/[C@H]3C[C@H]4C[C@@H]([C@@H]3C)C4(C)C)N3C[C@H](C)N[C@@H](C)C3)nc2)c(F)c1 [Compound 9] | 70.2% | 69.6% | 35.2% |  |  |  | 
